Source: patent US20250295795A1, “PEPTIDE” (priority 2021, published 2025)
“Also recorded” adds a separate entry of the source. No end group written: not given here.

How the values were obtained:
[1] = tested on: HeLa cells; assay: Live cell confocal microscopy: cellular uptake and intracellular distribution of Tat conjugates in HeLa cells; format: cell-based, human; settings: HeLa cells, 60 min, post-wash
Method: The cellular uptake and intracellular distribution of Tat-trimers and monomeric controls was investigated by performing live cell confocal microscopy of HeLa (human, cervical cancer) and CHO (Chinese hamster, […]). Following washing, images were acquired using a Zeiss 780 confocal microscope fitted with an incubation chamber (FIG. 2). In accordance with observations that free Tat in the cytosol readily enters the nucleus and strongly binds to nucleoli,^29 homogenous staining of cytoplasm and nucleoli were considered as indicative of cells having accumulated free conjugate, not confined to endosomes, for quantification purposes. […] The uptake and intracellular distribution of tri-Tat A is similar in live Hela and CHO cells (FIG. 2b,d,e).
Following washing, images were acquired using a Zeiss 780 confocal microscope fitted with an incubation chamber. In accordance with observations that free Tat in the cytosol readily enters the nucleus and strongly binds to nucleoli,^29 homogenous staining of cytoplasm and nucleoli were considered as indicative of cells having accumulated free conjugate, not confined to endosomes, for quantification purposes. The results were compared to tri-Tat A (8) and tri-cTat B (17).
(§1) HeLa and CHO cells were cultured in DMEM supplemented with 10% FBS and penicillin/streptomycin. For post-wash experiments, Tat conjugate was added to the cells in serum free medium, cells incubated at 37° C. in an atmosphere of 5% CO2, culture medium removed at the desired time point, cells washed and transferred to the microscope for imaging. For time course or pre-wash experiments, cells were transferred to the microscope (incubation chamber at 37° C., 5% CO2) and Tat conjugate added directly to cell medium and cells imaged at desired time points. Co-delivery experiments were conducted by adding peptide trimer immediately followed by cargo into serum free medium. Samples were visualised using a Zeiss LSM 780 inverted confocal microscope fitted with a XLmultiS1 incubation chamber and Plan-Apochromat 63×/1.40 Oil DIC M27 objective. Images were analysed using ImageJ software. Digital adjustments and image processing are consistent throughout the manuscript, unless otherwise stated in the figure legend. Statistical analysis was carried out using GraphPad Prism 7 software and all data used for statistical analysis consists of measurements from distinct cells. Where applicable a parametric, unpaired, two-tailed t-test was used for statistical testing.

[2] = tested on: CHO cells; assay: Live cell confocal microscopy: cellular uptake and intracellular distribution of Tat conjugates in CHO cells; format: cell-based, Chinese hamster; settings: 60 min, post-wash
Method: The cellular uptake and intracellular distribution of Tat-trimers and monomeric controls was investigated by performing live cell confocal microscopy of HeLa (human, cervical cancer) and CHO (Chinese hamster, epithelial) cells incubated with Tat conjugates (1 μM) in serum-free DMEM (60 min). Following washing, images were acquired using a Zeiss 780 confocal microscope fitted with an incubation chamber (FIG. 2). In accordance with observations that free Tat in the cytosol readily enters the nucleus and strongly binds to nucleoli,^29 homogenous staining of cytoplasm and nucleoli were considered as indicative of cells having accumulated free conjugate, not confined to endosomes, for quantification purposes. […] The uptake and intracellular distribution of tri-Tat A is similar in live Hela and CHO cells (FIG. 2b,d,e).
as §1

[3] = tested on: HeLa cells; assay: Time course of uptake in Hela cells (continuous live cell confocal microscopy, ROI profile analysis); format: cell-based, human; settings: 1 μM
Method: To better understand the mechanism by which tri-Tat A and tri-cTat B enter the cytosol and the nucleus, we investigated the uptake kinetics of the conjugates during the first 15 min after their addition to Hela cells using confocal live cell microscopy. Tri-Tat A (FIG. 3a) or tri-cTat B (FIG. 3b) (1 μM) were added to the cells and images acquired from 1 min to 15 min at 60 sec intervals. The two trimers show distinct uptake patters into Hela cells; to better understand the difference in uptake kinetics, we drew cross sectional profile plots through representative cells treated with tri-Tat A (FIG. 3c) and tri-cTat B (FIG. 3d). […] To investigate whether findings in individual cells also apply to larger populations, we extended the plot profile analysis by designating regions of interest (ROI) corresponding to plasma membrane, cytosol (excluding endosomes), nucleus, and nucleoli along the cross section, using information from brightfield images.^30 Average fluorescence intensities for each ROI, at each time point, in six cells per treatment group were calculated and plotted in FIGS. 3e-3h.
as §1

[4] = tested on: HeLa cells; assay: Membrane integrity / porosity: propidium iodide uptake after trimer treatment; format: cell-based, human; settings: 1 μM trimer; 40 μM PI added 20 min after trimer
Method: To assess membrane integrity, 40 μM propidium iodide (PI; a cell impermeable dye), was added to Hela cells 20 min after the addition of the peptide trimer.

[5] = MTT assay of metabolic activity (cell viability); format: cell-based; settings: human, HeLa cells, 1 μM for 60 min
Method: Toxicity is a concern with potent intracellular delivery agents. We used an MTT assay to measure the metabolic activity of Hela cells treated with 1 μM tri-Tat A or tri-cTat B for 60 min (FIG. 4d). […] Tri-Tat A is slightly more toxic, which is consistent with the observation that the trimer forms membrane pores (cells 84.4% viable, 4 h post-treatment; 80.2% viable, 3 days post-treatment). The favourable uptake mechanism and low toxicity of tri-cTat B lead us to investigate this agent for its potential to transport biomacromolecular cargos into cells.

[6] = tested on: HeLa cells; assay: Co-delivery of antibodies, antibody fragments and RFP into live Hela cells; format: cell-based, human; settings: 1 μM peptide
Text: Access to the cytosol by mechanisms that are independent of transmembrane pore formation constitutes a preferred method of co-delivery due to reduced toxicity to the cell. […] Successful delivery of Fab is indicated by homogenous distribution of AF647 signal in the cytosol and nucleus and is only observed in cells which have been transduced with tri-cTat B (FIG. 13). Time course of Fab uptake by tri-cTat B (FIG. 5c) follows a similar pattern as tri-cTat B alone (FIG. 3b, d). Tri-cTat B and Fab form large vesicle-like bodies that appear to release their contents into the cytosol of the cell; unambiguous cytosolic staining by Fab is observed from 23 min. Interaction between peptide trimer and biomacromolecule, mediated by charge-charge interactions is essential for the accumulation of both in endosomes and subsequent release and delivery of cargo into cells. Delivery of relatively β-sheet rich, neutrally charged recombinant RFP was unsuccessful (FIG. 16) due to a lack of association between tri-cTat B and cargo (FIG. 17). On the other hand, interaction diminishes the efficacy of the peptide trimer due to charge masking, emphasising the need to maintain an appropriate peptide to cargo ratio for a given macromolecule. Experiments to explore the efficacy of tri-cTat B in the presence of serum supplemented medium underline this principle; while tri-cTat B continues to function in the presence of serum, the number of transduced cells diminishes (42% (serum) vs. 61% (serum free)), but can be restored by increasing tri-cTat B concentration to 2 μM (79% (serum); FIG. 15). […] This is likely due to the larger size of antibodies and also to the observation that antibodies have a greater tendency to aggregate in the presence of tri-cTat B compared to Fab fragments. […] Finally, we investigated whether it is possible to deliver functional antibodies and antibody fragments into the cytosol and nuclei of cells. β-actin was chosen as a proof-of-principle protein because of its abundance in the cell and formation of distinctive subcellular filaments. To clearly identify actin filaments, Hela cells were transfected with red fluorescent protein fused to actin (actin-RFP) before being incubated with β-actin antibody (mouse IgG2b) or β-actin Fab fragment (mouse) conjugated to AF647 plus tri-cTat B for 30 min. After washing, cells were left for 60 min to allow IgG/Fab to bind to actin filaments. […] To enable objective quantification of co-localization between β-actin filaments and IgG/Fab fragment (white arrows), a co-localization threshold algorithm was used in selected regions of interest (ROI). Pearson's and Manders' coefficients were obtained under Costes' automatic threshold^32 and the co-localized pixels are shown as a mask of yellow pixels of constant intensity (co-localization panels). The significance of the co-localization parameters (Pearson's and Manders' coefficients) was evaluated using the confined displacement algorithm (CDA).
as §1, with “Statistical analysis was carried out using GraphPad Prism 7 software and all data used for statistical analysis consists of measurements from distinct cells. Where applicable a parametric, unpaired, two-tailed t-test was used for statistical testing.” left out

| Molecule | cellular uptake and intracellular distribution ([1]; 1 μM, serum-free DMEM) | cellular uptake and intracellular distribution ([2]; 1 μM, serum-free DMEM) | time after which cytosolic signal increases rapidly [3] | cytosolic signal relative to tri-cTat B (factor) ([3]; at 15 min, p<0.05) | association with plasma membrane (profile plots) ([3]; representative cells) | association with the plasma membrane relative to tri-cTat B ([3]; t=1 to 15 min, p<0.05) | propidium iodide (PI) uptake / pore formation [4] | viability at 4 h, 1 µM ([5]; 4 h post-treatment) | viability at 72 h, 1 µM ([5]; 3 days post-treatment) | cellular uptake and intracellular distribution ([1]; 10 μM) | cellular uptake and intracellular distribution ([2]; 10 μM) | cellular uptake of Fab in the presence of the peptide ([6]; Fab-AF647, 30 min) | cellular uptake of IgG in the presence of the peptide ([6]; IgG-AF647, 45 min) |
| --- | --- | --- | --- | --- | --- | --- | --- | --- | --- | --- | --- | --- | --- |
| N=C(N)NCCC[C@H](NC(=O)[C@H](CCCNC(=N)N)NC(=O)[C@H](CCCNC(=N)N)NC(=O)[C@H](CCC(N)=O)NC(=O)[C@H](CCCNC(=N)N)NC(=O)[C@H](CCCNC(=N)N)NC(=O)[C@H](CCCCN)NC(=O)[C@H](CCCCN)NC(=O)[C@H](CCCNC(=N)N)NC(=O)CCCc1cn(CC(Cn2cc(CCCC(=O)N[C@@H](CCCNC(=N)N)C(=O)N[C@@H](CCCCN)C(=O)N[C@@H](CCCCN)C(=O)N[C@@H](CCCNC(=N)N)C(=O)N[C@@H](CCCNC(=N)N)C(=O)N[C@@H](CCC(N)=O)C(=O)N[C@@H](CCCNC(=N)N)C(=O)N[C@@H](CCCNC(=N)N)C(=O)N[C@@H](CCCNC(=N)N)C(N)=O)nn2)(Cn2cc(CCCC(=O)N[C@@H](CCCNC(=N)N)C(=O)N[C@@H](CCCCN)C(=O)N[C@@H](CCCCN)C(=O)N[C@@H](CCCNC(=N)N)C(=O)N[C@@H](CCCNC(=N)N)C(=O)N[C@@H](CCC(N)=O)C(=O)N[C@@H](CCCNC(=N)N)C(=O)N[C@@H](CCCNC(=N)N)C(=O)N[C@@H](CCCNC(=N)N)C(N)=O)nn2)Cn2cc(CNC(=O)c3ccc4c(c3)C(=O)OC43c4ccc(N)c(S(=O)(=O)O)c4Oc4c3ccc(N)c4S(=O)(=O)O)nn2)nn1)C(N)=O (some centres unmarked) [tri-Tat A] | homogenous cytosolic uptake and nucleolar staining; also recorded: taken up into the cytosol and nucleoli | homogenous cytosolic uptake and nucleolar staining; also recorded: taken up into the cytosol and nucleoli | ~12 min | 2 | initial strong association | approximately three | significantly higher; also recorded: co-stain with PI | 84.4% | 80.2% |  |  |  |  |
| tri-Tat B: AF488-labelled trimer of linear Tat (49-57) peptide on alkyne functionalized scaffold B (RKKRRQRRR; also: trimer on alkyne functionalized scaffold B, AF488 label, place not given here; UniProt P04608 49-57, looked up, fragment) | no evidence of cytosolic uptake or nucleolar staining; also recorded: only taken up into endosomes | no evidence of cytosolic uptake or nucleolar staining; also recorded: only taken up into endosomes |  |  |  |  |  |  |  |  |  |  |  |
| mono-Tat: monomeric control: linear Tat (49-57) peptide labelled with AF488 (RKKRRQRRR; also: AF488 label, place not given here; UniProt P04608 49-57, looked up, fragment) | not taken up | not taken up |  |  |  |  |  |  |  | no cytosolic uptake or nucleolar staining; also recorded: taken up only into endosomes | no cytosolic uptake or nucleolar staining; also recorded: taken up only into endosomes | no cellular uptake | no cellular uptake |
